Data published in patent US10280198B2, “Therapeutic agents for reducing parathyroid hormone levels” (KAI PHARMACEUTICALS, INC., priority 2009, dated 2019).
pEC50: −log10 of the molar value. Like-named read-outs stand apart in the source and are kept apart here. Square brackets hold non-standard residues; d marks the D form. Peptide text beside a SMILES is read from it.

Key:
[1] = tested on: rat peritoneal mast cells; test: In vitro histamine induction in rat peritoneal mast cells; assay type: cell-based
How it was run: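 Mast cells from peritoneal lavage of Sprague Dawley rats were incubated with compound at 10 μM for 15 min at 37 °C in HBSS + 25 mM HEPES pH 7.4. Supernatant histamine measured by EIA; response expressed as fold change versus pre-incubation levels.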

plasma PTH = test: In vivo PTH lowering after IV bolus in isoflurane-anesthetized normal Sprague Dawley rats; parameters: species or system rat; conditions: for % PTH reduction of baseline at 1 hour post IV admin. of 0.5 mg/kg compound / 0.5 mg/kg IV bolus % PTH AUC of saline control: Table 1; for % PTH reduction of baseline at 1 hour post IV admin. of 0.5 mg/kg compound: isoflurane-anesthetized normal rats, 0.5 mg/kg IV; for 0.5 mg/kg IV bolus % PTH AUC of saline control / duration of decreased PTH: normal rats; for 0.5 mg/kg IV bolus % PTH AUC of saline control: PTH at 1, 2, 3, 4 h, AUCcmpd treated/AUCsaline control*100; for duration of decreased PTH: 0.5 mg/kg IV bolus, FIG. 5
How it was run: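 Peptides were given as a 0.5 mg/kg IV bolus to normal Sprague Dawley rats kept under isoflurane throughout, with saline bolus controls.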

[2] = target: T1, human calcium-sensing receptor (CaSR) (Homo sapiens, UniProt P41180); test: In vitro cell assay in HEK-293 expressing the human calcium-sensing receptor (IP1 production); assay type: cell-based
T1 construct: expressed in transfected cells; host or cells: HEK 293T cells, transiently transfected (lipofectamine 2000); in some cases HEK293 cells stably transfected
T1 sequence (P41180 20-1078): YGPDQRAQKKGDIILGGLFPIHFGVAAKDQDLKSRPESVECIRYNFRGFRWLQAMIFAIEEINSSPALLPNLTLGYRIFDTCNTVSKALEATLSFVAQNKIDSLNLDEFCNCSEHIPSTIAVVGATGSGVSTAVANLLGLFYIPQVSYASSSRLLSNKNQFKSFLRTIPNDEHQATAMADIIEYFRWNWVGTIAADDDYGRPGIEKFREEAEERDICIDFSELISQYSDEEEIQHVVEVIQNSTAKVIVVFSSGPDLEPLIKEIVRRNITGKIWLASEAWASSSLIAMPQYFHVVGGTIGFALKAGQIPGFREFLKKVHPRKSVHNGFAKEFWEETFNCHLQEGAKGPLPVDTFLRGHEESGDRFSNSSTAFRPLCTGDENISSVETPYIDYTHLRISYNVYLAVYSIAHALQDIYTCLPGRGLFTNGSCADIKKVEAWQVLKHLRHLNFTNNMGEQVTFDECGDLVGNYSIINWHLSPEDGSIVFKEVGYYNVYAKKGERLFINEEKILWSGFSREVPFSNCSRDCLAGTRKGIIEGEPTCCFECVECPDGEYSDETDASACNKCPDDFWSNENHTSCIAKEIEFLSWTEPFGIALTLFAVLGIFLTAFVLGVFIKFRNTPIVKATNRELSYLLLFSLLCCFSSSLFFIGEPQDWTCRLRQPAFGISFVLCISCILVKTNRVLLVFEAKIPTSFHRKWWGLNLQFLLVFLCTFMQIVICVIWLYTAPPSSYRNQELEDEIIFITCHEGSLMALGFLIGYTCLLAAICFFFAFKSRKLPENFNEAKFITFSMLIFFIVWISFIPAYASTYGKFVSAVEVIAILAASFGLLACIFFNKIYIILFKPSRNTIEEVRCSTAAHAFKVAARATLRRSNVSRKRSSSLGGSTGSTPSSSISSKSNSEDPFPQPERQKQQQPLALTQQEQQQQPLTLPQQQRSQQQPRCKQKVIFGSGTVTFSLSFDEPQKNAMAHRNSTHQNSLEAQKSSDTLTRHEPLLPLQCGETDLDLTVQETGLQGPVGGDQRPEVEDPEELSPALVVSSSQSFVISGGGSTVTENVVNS
Protocol: The activity of a variety of peptides and conjugates was tested against the human CaSR. These studies were conducted by measuring IP1 production in HEK293 cells that express the human CaSR. Each peptide was tested in eight different concentrations, in duplicates, to establish a dose response curve. Curve fitting was performed using GraphPad Prism. In Table 5, and throughout the specification, residues provided in capital letters are L-amino acids, while lower case letters indicate D-amino acids. “Ac” indicates an acetyl capping group, “NH2” indicates an amide capping group, “Ac-bAla” is an acetylated beta-alanine, “GSH” indicates reduced glutathione, “GS” indicates oxidized glutathione, “PEG” refers to polyethylene glycol, “PEG2” and “PEGS” refer to polyethylene glycol moieties of 2 kDa and 5 kDa, respectively, and “Mpa” refers to mercaptopropionic acid.
The day after, these cells were transfected with human CaSR receptor using lipofectamine 2000 transfection reagent 24 hrs post transfection, cells were seeded in 384 well plates at 8,000 cells/well. […] In some cases, EC50 values were determined by measuring inositol monophosphate production in the HEK293 cells, stably transfected with the human calcium-sensing receptor (see Table 1).
Cells were incubated with compounds at various concentrations (1 mM or 300 μM as the highest and further ½ log serial dilutions) at 37° C. for 1.5 hrs before reaction termination. […] In brief, incubation with the compound was terminated by sequentially adding D2 labeled-IP1 and cryptate-labeled anti-IP1 in lysis buffer and further incubating at room temperature for 60 minutes. […] Non-transfected 293 cells were used as negative control.
IP1 concentrations were calculated from standard curves (generated with Graph Pad Prism ver. 4) using known concentrations of IP1 standards.

[3] = Table 1, IP1 in HEK293 cells expressing human CaSR, read-out: In vitro EC50
[4] = Table 5, IP1 production in HEK293 cells expressing human CaSR, eight concentrations in duplicate, read-out: EC50 in CaSR in vitro assay

Histamine in vitro Fold change of non-treated at 10 uM [1] [fold] | pEC50 [2, 3] | pEC50 [2, 4] | SMILES | % PTH reduction of baseline at 1 hour post IV admin. of 0.5 mg/kg compound (plasma PTH) [%] | 0.5 mg/kg IV bolus % PTH AUC of saline control (plasma PTH) [%] | duration of decreased PTH (plasma PTH) | PTH-lowering activity in normal rats (plasma PTH; 0.5 mg/kg single IV administration)
4.1 | 5.96 | 5.96 | CC(=O)N[C@H](CS)C(=O)N[C@H](CCCNC(=N)N)C(=O)N[C@H](CCCNC(=N)N)C(=O)N[C@H](CCCNC(=N)N)C(=O)N[C@H](CCCNC(=N)N)C(=O)N[C@H](CCCNC(=N)N)C(=O)N[C@H](C)C(N)=O [SEQ ID NO: 13, Ac-crrrrra-NH2] (Ac-[dC][dR][dR][dR][dR][dR][dA]-NH2) | 4 | 28 | – | –
6.6 | 5.96 | 5.96 | CC(=O)N[C@H](CS)C(=O)N[C@H](C)C(=O)N[C@H](CCCNC(=N)N)C(=O)N[C@H](CCCNC(=N)N)C(=O)N[C@H](CCCNC(=N)N)C(=O)N[C@H](CCCNC(=N)N)C(=O)N[C@H](CCCNC(=N)N)C(N)=O [SEQ ID NO: 8, Ac-carrrrr-NH2] (Ac-[dC][dA][dR][dR][dR][dR][dR]-NH2) | 0 | 0 | at least four hours | below the detection limit or essentially zero
5.0 | 6.35 | 6.35 | CC(=O)N[C@H](CS)C(=O)N[C@H](CCCNC(=N)N)C(=O)N[C@H](CCCNC(=N)N)C(=O)N[C@H](CCCNC(=N)N)C(=O)N[C@H](CCCNC(=N)N)C(=O)N[C@H](C)C(=O)N[C@H](CCCNC(=N)N)C(N)=O [SEQ ID NO: 12, Ac-crrrrar-NH2] (Ac-[dC][dR][dR][dR][dR][dA][dR]-NH2) | 3 | 3 | at least four hours | –
6.8 | 6.00 | 6.00 | CC(=O)N[C@H](CS)C(=O)N[C@H](CCCNC(=N)N)C(=O)N[C@H](C)C(=O)N[C@H](CCCNC(=N)N)C(=O)N[C@H](CCCNC(=N)N)C(=O)N[C@H](CCCNC(=N)N)C(=O)N[C@H](CCCNC(=N)N)C(N)=O [SEQ ID NO: 9, Ac-crarrrr-NH2] (Ac-[dC][dR][dA][dR][dR][dR][dR]-NH2) | 0 | 7 | – | –
